Columns and labels:
[1] = molecular target: T1, squalene synthetase (Homo sapiens, UniProt P37268); test: Squalene synthetase inhibitory activity (human-derived enzyme prepared from HepG2 cells); type: biochemical; conditions: [1-3H] farnesyl pyrophosphate, 37° C., 45 minutes, read-out: Inhibitory Activity (IC50, 10^−9 M)
T1 construct: This suspension was used as the enzyme solution; endogenous in cells; host or cells: HepG2 human hepatic carcinoma cells; membrane fraction (105000×g sediment) of the sonicate
T1 sequence (P37268 1-417): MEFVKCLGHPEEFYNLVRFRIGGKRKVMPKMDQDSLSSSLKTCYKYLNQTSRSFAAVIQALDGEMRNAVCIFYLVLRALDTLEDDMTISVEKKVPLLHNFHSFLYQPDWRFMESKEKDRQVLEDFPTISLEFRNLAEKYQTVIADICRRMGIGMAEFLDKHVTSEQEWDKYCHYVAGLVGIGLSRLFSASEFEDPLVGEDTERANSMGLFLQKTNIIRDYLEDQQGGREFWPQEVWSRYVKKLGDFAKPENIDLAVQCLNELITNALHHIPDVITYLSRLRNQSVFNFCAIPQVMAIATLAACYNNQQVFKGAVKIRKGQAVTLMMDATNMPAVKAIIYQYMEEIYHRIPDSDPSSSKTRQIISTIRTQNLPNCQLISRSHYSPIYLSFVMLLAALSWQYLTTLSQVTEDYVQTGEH
Protocol: The squalene synthetase inhibitory activity was assayed as follows with the enzyme solutions prepared in accordance with the method described below.
More specifically, an enzyme solution (protein content 0.8 μg) prepared in accordance with the method described below was added to a solution (total volume 50 μl)) containing 5 μM [1-^3H] farnesyl pyrophosphate (specific activity 25 μCi/mole), 1 mM NADPH (nicotinamide adenine dinucleotide phosphate of reduced type), 5 mM MgCl2, 6 mM glutathione, a 100 mM buffer solution of potassium phosphate (pH 7.4) and a test drug (used as an aqueous solution or a DMSO solution), then the reaction was allowed to proceed at 37° C. for 45 minutes. To the reaction mixture was added 150 μl of a mixture of chloroform and methanol (1:2) to suspend the reaction, followed by adding 50 Al of chloroform and 50 μl of a 3N solution of sodium hydroxide. 50 μl of the chloroform layer (lower layer) containing the reaction mixture having squalene as the principal component and 3 ml of toluene-based liquid scintillator were mixed, and its radioactivity was determined by means of a liquid scintillation counter.
The squalene synthetase inhibitory activity was expressed in terms of the concentration inhibiting by 50% the radioactivity taken into the chloroform layer (IC50, molar concentration (M)), as shown in Table 7. Preparation of human-derived enzyme
Human hepatic carcinoma cells HepG2 (about 1×10^9 cells) obtained by incubation on a Dulbecco-modified Eagle's medium (37° C. in the presence of 5% CO2) containing 10% fetal bovine serum were suspended in 10 ml of an ice-cooled buffer solution (100 mM potassium phosphate buffer (pH 7.4), 30 mM nicotinamide and 2.5 mM MgCl2]. The cells were crashed by means of ultrasonication (for 30 seconds, twice). The sonicate thus obtained was subjected to centrifugation for 20 minutes (4° C.) with 10000×g. The supernatant layer was subjected to further centrifugation for 90 minutes (4° C.) with 105000×g. The sediment was then suspended in an ice-cooled 100 mM potassium phosphate buffer (pH 7.4), which was again subjected to centrifugation for 90 minutes (4° C.) with 105000×g. This fraction was suspended in an ice-cooled 100 mM potassium phosphate buffer solution (pH 7.4) (about 4 mg/ml protein concentration). This suspension was used as the enzyme solution.

[2] = test system: Cholesterol biosynthesis in the liver; test: Assay of cholesterogenesis in the liver; type: in vivo; conditions: Wistar fatty rats, liver total sterol radioactivity from 14C sodium acetate
Protocol: Cholesterol biosynthesis in the liver of a rat was assayed as follows. Six-week old Wistar fatty rats were given orally a test compound [Compound 4-2 (suspended in a 0.5% methyl cellulose solution)], while the control group was orally given only a 0.5% methyl cellulose solution. One hour later, sodium acetate labelled with radioisotope ^14C (manufactured by Amasham) was given intravenously at the tail (10 μCi/0.3 ml physiological saline/rat). One hour layer, rats were sacrificed by decapitation, and 1.5 g of the first lobe of the liver was removed, which was saponified by immersing in 3.9 ml of an alkaline ethanol solution (KOH:EtOH=1:2) at 100° C. for two hours, followed by extraction with 5 ml each portion of petroleum ether three times. The extract solution was dried, which was dissolved in 3 ml of ethanol:acetone (1:1). To the solution was added 2 ml of a 0.5% digitonin-ethanol solution. The mixture was left standing for one hour. Resulting precipitates were collected as total sterol, and the radioactivity was measured by means of a liquid scintillation counter.

SMILES	IC50 [1] [nM]	melting point [°C]	Cholesterogenesis inhibitory rate (%) ([2]; 0.6 mg/kg given orally)	Cholesterogenesis inhibitory rate (%) ([2]; 2.0 mg/kg given orally)
COc1cccc([C@H]2O[C@H](CC(=O)N3CCC(CC(=O)O)CC3)C(=O)N(CC(C)(C)C)c3ccc(Cl)cc32)c1OC [Compound 4-2, N-[(3R,5S)-7-chloro-5-(2,3-dimethoxyphenyl)-1-neopentyl-2-oxo-1,2,3,5-tetrahydro-4,1-benzoxazepine-3-acetyl]piperidine-4-acetic acid]	22	137 to 140	80.1	90.4
COc1cccc([C@H]2O[C@H](CC(=O)NS(C)(=O)=O)C(=O)N(CC(C)(C)CO)c3ccc(Cl)cc32)c1OC [Compound 19, (3R,5S)-N-methylsulfonyl-7-chloro-5-(2,3-dimethoxyphenyl)-1-(3-hydroxy-2,2-dimethylpropyl)-2-oxo-1,2,3,5-tetrahydro-4,1-benzoxazepine-3-acetamide]	32	221 to 223	–	–
COc1cccc([C@H]2O[C@H](CC(=O)N3CCC(CC(=O)NS(C)(=O)=O)CC3)C(=O)N(CC(C)(C)CO)c3ccc(Cl)cc32)c1OC [Compound 21, N-methylsulfonyl-[N-[(3R,5S)-7-chloro-5-(2,3-dimethoxyphenyl)-1-(3-hydroxy-2,2-dimethylpropyl)-2-oxo-1,2,3,5-tetrahydro-4,1-benzoxazepine-3-acetyl]piperidine]-4-acetamide]	26	175 to 180	–	–
COc1cccc([C@H]2O[C@H](CC(=O)NCP(=O)(O)O)C(=O)N(CC(C)(C)C)c3ccc(Cl)cc32)c1OC [Compound 22, (3R,5S)-N-phosphonomethyl-7-chloro-5-(2,3-dimethoxyphenyl)-1-neopentyl-2-oxo-1,2,3,5-tetrahydro-4,1-benzoxazepine-3-acetamide]	8.5	152 to 155	–	–
COc1cccc([C@H]2O[C@H](CC(=O)N3CCC(CP(=O)(O)O)CC3)C(=O)N(CC(C)(C)C)c3ccc(Cl)cc32)c1OC [Compound 23, N-[(3R,5S)-7-chloro-5-(2,3-dimethoxyphenyl)-1-neopentyl-2-oxo-1,2,3,5-tetrahydro-4,1-benzoxazepine-3-acetyl]-4-phosphonomethylpiperidine]	12	174 to 175	–	–
COc1cccc([C@H]2O[C@H](CC(=O)N3CCC(Cc4nnn[nH]4)CC3)C(=O)N(CC(C)(C)C)c3ccc(Cl)cc32)c1OC [Compound 24, 5-[[N-[(3R,5S)-7-chloro-5-(2,3-dimethoxyphenyl)-1-neopentyl-2-oxo-1,2,3,5-tetrahydro-4,1-benzoxazepine-3-acetyl]piperidin-4-yl]methyl]1H(or 3H)-tetrazole]	17	168 to 170	–	–
COc1cccc([C@H]2O[C@H](CC(=O)N3CCC(CCc4nnn[nH]4)CC3)C(=O)N(CC(C)(C)C)c3ccc(Cl)cc32)c1OC [Compound 25, 5-[2-[N-[(3R,5S)-7-chloro-5-(2,3-dimethoxyphenyl)-1-neopentyl-2-oxo-1,2,3,5-tetrahydro-4,1-benzoxazepine-3-acetyl]piperidin-4-yl]ethyl]1H(or 3H)-tetrazole]	29	155 to 158	–	–
